Test results taken from patent US20150089682A1, “ALS Inhibitor Herbicide Tolerant B. Napus Mutants” (priority 2012, published 2015).

Experiments:
[1] = molecular target: T1, mixture of S653N and W574L ALS enzymes (Arabidopsis thaliana, UniProt P17597); assay type: biochemical
T1 construct: crude E. coli extract was used

[2] = molecular target: T2, mixture of P197S and W574L ALS enzymes (Arabidopsis thaliana, UniProt P17597); assay type: biochemical
T2 construct: crude E. coli extract was used

[3] = test system: spring oilseed rape variety ABILITY; experiment: Herbicide tolerance in the field, visible phytotoxicity; assay type: in vivo, Brassica napus; conditions: Brassica napus, topical, 432 h; ABILITY; AI dose rate 50 gai/ha; field, 18 days after application; 0%=no phytotoxic effects, 100%=all plants killed; read-out: % phytotox
[4] = test system: spring oilseed rape homozygous for HETO108 and HETO121; experiment: as above; assay type: in vivo, Brassica napus; conditions: Brassica napus, topical, 432 h; HETO108-HETO121; AI dose rate 50 gai/ha; field, 18 days after application; 0%=no phytotoxic effects, 100%=all plants killed; read-out: % phytotox
[5] = molecular target: T3, Arabidopsis thaliana S653N-mutant ALS (Arabidopsis thaliana, UniProt P17597, E575Q/S653N); experiment: biochemical
T3 construct: vector-encoded N-terminal fusion of pET-32a(+) (Trx/His/S tag by own knowledge); made in house; host or cells: Escherichia coli AD494

[6] = molecular target: T4, Arabidopsis thaliana wild-type ALS (Arabidopsis thaliana, UniProt P17597, E575Q); experiment: biochemical; conditions: measured; crude extract of E. coli expressed enzyme; read-out: pI50 WT (converted)
T4 construct: vector-encoded N-terminal fusion of pET-32a(+) (Trx/His/S tag by own knowledge); made in house; host or cells: Escherichia coli AD494

[7] = molecular target: T5, Arabidopsis thaliana W574L-mutant ALS (Arabidopsis thaliana, UniProt P17597, E575Q/W574L); experiment: biochemical
T5 construct: vector-encoded N-terminal fusion of pET-32a(+) (Trx/His/S tag by own knowledge); made in house; host or cells: Escherichia coli AD494

[8] = molecular target: T6, Arabidopsis thaliana P197S-mutant ALS (Arabidopsis thaliana, UniProt P17597, E575Q/P197S); experiment: biochemical
T6 construct: vector-encoded N-terminal fusion of pET-32a(+) (Trx/His/S tag by own knowledge); made in house; host or cells: Escherichia coli AD494

[9] = test system: ALS enzymes in leaves of Brassica lines homozygous for HETO108, HETO121 or both; experiment: ALS enzyme activity in leaves; assay type: biochemical, Brassica napus; conditions: P197S (row II) compared with W574L (row III) and both (row I), FIG. 3
Experimental: (§1) The inhibitory effect of ALS inhibiting herbicides on ALS enzymes encoded by the different mutant AHAS alleles was tested in leaf material essentially as described by Shimizu et al, 2008, Plant Physiol. 147:1976.

[10] = test system: ALS enzyme in leaves of wild-type Brassica lines; experiment: ALS enzyme activity in leaves; assay type: biochemical, Brassica napus; conditions: wild-type leaves (row IV) compared with mutant lines (rows I-III), FIG. 3
Experimental: as §1

[11] = calculated for a mixture of equal activities of the two enzymes, pI50=3.0 used where measured <4
[12] = relative to WT, from measured pI50

COc1cc(OC)nc(NC(=O)NS(=O)(=O)c2cc(NC=O)ccc2C(=O)N(C)C)n1 [Foramsulfuron, foramsulfuron]
pI50 S653N & W574L [1, 11]: 5.7
Resistance Factor S653N & W574L ([1]; relative to WT, calculated): 316
pI50 P197S & W574L [2, 11]: 5.6
Resistance Factor P197S & W574L ([2]; relative to WT, calculated): 398
pest or weed control at 50 g/ha [3]: 99%
pest or weed control at 50 g/ha [4]: 28%
IC50 ([5]; measured, crude extract of E. coli expressed enzyme, read-out: pI50 S653N (converted)): 0.0631 µM
Resistance Factor S653N [5, 12]: 10
IC50 [6]: 0.00631 µM
IC50 ([7]; measured, crude extract of E. coli expressed enzyme, read-out: pI50 W574L (converted)): 50.1 µM
Resistance Factor W574L [7, 12]: 7943
IC50 ([8]; measured, crude extract of E. coli expressed enzyme, read-out: pI50 P197S (converted)): 0.1 µM
Resistance Factor P197S [8, 12]: 16
tolerance of ALS activity in leaves by mutation [9]: the tolerance in lines with the P197S mutation (row II) is lower than the tolerance in lines with the W574L mutation (row III) and with both the P197S and W574L mutation (row I)
inhibition of ALS enzyme activity in leaves [10]: inhibited at lower concentrations of the herbicides than in leaves comprising the mutant AHAS alleles
